Experimental findings from patent US8932597B2 (priority 2008, dated 2015) are described below.

This test has as its system anti-M2 human monoclonal antibody Z3G1. It is filed as binding.
For the substance “1444 (CEVETPIRNELLTEVETPICLTEVETPIR; epitope peptide; MISC_FEATURE (1)..(1): C is an attachment site for a CLIP; MISC_FEATURE (10)..(10): E is an attachment site for a CLIP; MISC_FEATURE (11)..(11): L is an attachment site for a CLIP; MISC_FEATURE (29)..(29): R is an attachment site for a CLIP) [compound 1444]”, the “Signal (peptides that bind to Z3G1)” value is 2000.
As for “1445 (CVETPIRNEWLLTEVETPICLTEVETPIR; epitope peptide; MISC_FEATURE (1)..(1): C is an attachment site for a CLIP; MISC_FEATURE (10)..(10): W is an attachment site for a CLIP; MISC_FEATURE (11)..(11): L is an attachment site for a CLIP; MISC_FEATURE (29)..(29): R is an attachment site for a CLIP) [compound 1445]”, the “Signal (peptides that bind to Z3G1)” value was determined as 2280.
On to “1446 (CETPIRNEWGLLTEVETPICLTEVETPIR; epitope peptide; MISC_FEATURE (1)..(1): C is an attachment site for a CLIP; MISC_FEATURE (10)..(10): G is an attachment site for a CLIP; MISC_FEATURE (11)..(11): L is an attachment site for a CLIP; MISC_FEATURE (29)..(29): R is an attachment site for a CLIP) [compound 1446]”, for which the “Signal (peptides that bind to Z3G1)” value amounted to 2367.
In the case of “1458 (CLTEVETPIRLLTEVETPICTEVETPIRN; epitope peptide; MISC_FEATURE (1)..(1): C is an attachment site for a CLIP; MISC_FEATURE (10)..(10): R is an attachment site for a CLIP; MISC_FEATURE (11)..(11): L is an attachment site for a CLIP; MISC_FEATURE (29)..(29): N is an attachment site for a CLIP) [compound 1458]” it was 1756.
In the case of “1459 (CTEVETPIRNLLTEVETPICTEVETPIRN; epitope peptide; MISC_FEATURE (1)..(1): C is an attachment site for a CLIP; MISC_FEATURE (10)..(10): N is an attachment site for a CLIP; MISC_FEATURE (11)..(11): L is an attachment site for a CLIP; MISC_FEATURE (29)..(29): N is an attachment site for a CLIP) [compound 1459]” it was 1749; in that of “1460 (CEVETPIRNELLTEVETPICTEVETPIRN; epitope peptide; MISC_FEATURE (1)..(1): C is an attachment site for a CLIP; MISC_FEATURE (10)..(10): E is an attachment site for a CLIP; MISC_FEATURE (11)..(11): L is an attachment site for a CLIP; MISC_FEATURE (29)..(29): N is an attachment site for a CLIP) [compound 1460]”, 1620.
In the case of “1461 (CVETPIRNEWLLTEVETPICTEVETPIRN; epitope peptide; MISC_FEATURE (1)..(1): C is an attachment site for a CLIP; MISC_FEATURE (10)..(10): W is an attachment site for a CLIP; MISC_FEATURE (11)..(11): L is an attachment site for a CLIP; MISC_FEATURE (29)..(29): N is an attachment site for a CLIP) [compound 1461]” it was 1835; in that of “1462 (CETPIRNEWGLLTEVETPICTEVETPIRN; epitope peptide; MISC_FEATURE (1)..(1): C is an attachment site for a CLIP; MISC_FEATURE (10)..(10): G is an attachment site for a CLIP; MISC_FEATURE (11)..(11): L is an attachment site for a CLIP; MISC_FEATURE (29)..(29): N is an attachment site for a CLIP) [compound 1462]”, 1710.
As to “1473 (CEVETPIRNESLLTEVETPCEVETPIRNE; epitope peptide; MISC_FEATURE (1)..(1): C is an attachment site for a CLIP; MISC_FEATURE (10)..(10): E is an attachment site for a CLIP; MISC_FEATURE (11)..(11): S is an attachment site for a CLIP; MISC_FEATURE (29)..(29): E is an attachment site for a CLIP) [compound 1473]”, the “Signal (peptides that bind to Z3G1)” value amounted to 2006.
Under “1474 (CVETPIRNEWSLLTEVETPCEVETPIRNE; epitope peptide; MISC_FEATURE (1)..(1): C is an attachment site for a CLIP; MISC_FEATURE (10)..(10): W is an attachment site for a CLIP; MISC_FEATURE (11)..(11): S is an attachment site for a CLIP; MISC_FEATURE (29)..(29): E is an attachment site for a CLIP) [compound 1474]” stands 1986; under “1475 (CETPIRNEWGSLLTEVETPCEVETPIRNE; epitope peptide; MISC_FEATURE (1)..(1): C is an attachment site for a CLIP; MISC_FEATURE (10)..(10): G is an attachment site for a CLIP; MISC_FEATURE (11)..(11): S is an attachment site for a CLIP; MISC_FEATURE (29)..(29): E is an attachment site for a CLIP) [compound 1475]”, 2642; under “1478 (CLTEVETPIRLLTEVETPICEVETPIRNE; epitope peptide; MISC_FEATURE (1)..(1): C is an attachment site for a CLIP; MISC_FEATURE (10)..(10): R is an attachment site for a CLIP; MISC_FEATURE (11)..(11): L is an attachment site for a CLIP; MISC_FEATURE (29)..(29): E is an attachment site for a CLIP) [compound 1478]”, 1681.
Under “1479 (CTEVETPIRNLLTEVETPICEVETPIRNE; epitope peptide; MISC_FEATURE (1)..(1): C is an attachment site for a CLIP; MISC_FEATURE (10)..(10): N is an attachment site for a CLIP; MISC_FEATURE (11)..(11): L is an attachment site for a CLIP; MISC_FEATURE (29)..(29): E is an attachment site for a CLIP) [compound 1479]” stands 1627; under “1480 (CEVETPIRNELLTEVETPICEVETPIRNE; epitope peptide; MISC_FEATURE (1)..(1): C is an attachment site for a CLIP; MISC_FEATURE (10)..(10): E is an attachment site for a CLIP; MISC_FEATURE (11)..(11): L is an attachment site for a CLIP; MISC_FEATURE (29)..(29): E is an attachment site for a CLIP) [compound 1480]”, 1394.
